Source: the supplement of paper PMC13380429

Assays:
Conditions in all cases: 72 h
Caco-2 [1] = assay: cell viability relative to DMSO; higher = less toxic
Calu-3 [2] = assay: as above
HepG2 [3] = assay: as above
U2OS [4] = assay: as above
Vero E6 [5] = assay: as above
Calu-3 [6] = assay: relative viability EC50 (midpoint between 100% and the lowest measured viability); higher = less toxic
HepG2 [7] = assay: as above
U2OS [8] = assay: as above
Vero E6 [9] = assay: as above
Caco-2 [10] = assay: drug sensitivity score (DSS) for viability; higher = more toxic; extreme values may be limits of the assay
Calu-3 [11] = assay: as above
HepG2 [12] = assay: as above
U2OS [13] = assay: as above
Vero E6 [14] = assay: as above

**Q.** `OC(CCN1CCCCC1)(c1ccccc1)C1CCCCC1` (stereo not given) [trihexyphenidyl] was tested. Which cell viability (Caco-2 [1]; 1 nM) did it give?
**A.** The cell viability was 101%.

**Q.** What about the cell viability (Caco-2 [1]; 10 nM) of the same molecule?
**A.** The cell viability was 100%.

**Q.** And the cell viability (Caco-2 [1]; 100 nM)?
**A.** Its cell viability is 95.5%.

**Q.** What about the cell viability (Caco-2 [1]; 1000 nM) of the same molecule?
**A.** Its cell viability is 94.6%.

**Q.** What about the cell viability (Caco-2 [1]; 10000 nM) of the same molecule?
**A.** Its cell viability is 74.7%.

**Q.** What about the cell viability (Calu-3 [2]; 1 nM) of the same molecule?
**A.** Its cell viability is 102%.

**Q.** What about the cell viability (Calu-3 [2]; 10 nM) of the same molecule?
**A.** The cell viability was 98.9%.

**Q.** What about the cell viability (Calu-3 [2]; 100 nM) of the same molecule?
**A.** The cell viability was 96.7%.

**Q.** And the cell viability (Calu-3 [2]; 1000 nM)?
**A.** The cell viability was 90.7%.

**Q.** And the cell viability (Calu-3 [2]; 10000 nM)?
**A.** The cell viability was 85.6%.

**Q.** And the cell viability (HepG2 [3]; 1 nM)?
**A.** Its cell viability is 101%.

**Q.** What about the cell viability (HepG2 [3]; 10 nM) of the same molecule?
**A.** Its cell viability is 87.7%.

**Q.** And the cell viability (HepG2 [3]; 100 nM)?
**A.** The cell viability was 100%.

**Q.** What about the cell viability (HepG2 [3]; 1000 nM) of the same molecule?
**A.** Its cell viability is 93.2%.

**Q.** And the cell viability (HepG2 [3]; 10000 nM)?
**A.** The cell viability was 83.4%.

**Q.** What about the cell viability (U2OS [4]; 1 nM) of the same molecule?
**A.** Its cell viability is 96.9%.

**Q.** And the cell viability (U2OS [4]; 10 nM)?
**A.** The cell viability was 103%.

**Q.** And the cell viability (U2OS [4]; 100 nM)?
**A.** The cell viability was 101%.

**Q.** What about the cell viability (U2OS [4]; 1000 nM) of the same molecule?
**A.** Its cell viability is 98.1%.

**Q.** What about the cell viability (U2OS [4]; 10000 nM) of the same molecule?
**A.** Its cell viability is 97.8%.

**Q.** What about the cell viability (Vero E6 [5]; 1 nM) of the same molecule?
**A.** Its cell viability is 103%.

**Q.** What about the cell viability (Vero E6 [5]; 10 nM) of the same molecule?
**A.** The cell viability was 106%.

**Q.** What about the cell viability (Vero E6 [5]; 100 nM) of the same molecule?
**A.** Its cell viability is 112%.

**Q.** And the cell viability (Vero E6 [5]; 1000 nM)?
**A.** Its cell viability is 98.9%.

**Q.** And the cell viability (Vero E6 [5]; 10000 nM)?
**A.** The cell viability was 83.1%.

**Q.** And the “relative viability EC50” value (Calu-3 [6])?
**A.** Its value is over 10 µM.

**Q.** And the “relative viability EC50” value (HepG2 [7])?
**A.** The value was over 10 µM.

**Q.** What about the “relative viability EC50” value (U2OS [8]) of the same molecule?
**A.** Its value is over 10 µM.

**Q.** What about the “relative viability EC50” value (Vero E6 [9]) of the same molecule?
**A.** The value was over 10 µM.

**Q.** And the drug sensitivity score (Caco-2 [10])?
**A.** Its drug sensitivity score is 1.7.

**Q.** And the drug sensitivity score (Calu-3 [11])?
**A.** The drug sensitivity score was 0.5.

**Q.** And the drug sensitivity score (HepG2 [12])?
**A.** Its drug sensitivity score is 0.3.

**Q.** And the drug sensitivity score (U2OS [13])?
**A.** Its drug sensitivity score is 0.

**Q.** And the drug sensitivity score (Vero E6 [14])?
**A.** The drug sensitivity score was 0.5.

**Q.** `C[C@@]1(CO)[C@H](O)CC[C@@]2(C)[C@H]1CC[C@H]1C[C@@H]3C[C@@]12CC[C@]3(O)CO` [aphidicolin] was tested. Which cell viability (Caco-2 [1]; 1 nM) did it give?
**A.** The cell viability was 100%.

**Q.** And the cell viability (Caco-2 [1]; 10 nM)?
**A.** Its cell viability is 100%.

**Q.** And the cell viability (Caco-2 [1]; 100 nM)?
**A.** Its cell viability is 80%.

**Q.** What about the cell viability (Caco-2 [1]; 1000 nM) of the same molecule?
**A.** The cell viability was 79.2%.

**Q.** And the cell viability (Caco-2 [1]; 10000 nM)?
**A.** Its cell viability is 72%.

**Q.** What about the cell viability (Calu-3 [2]; 1 nM) of the same molecule?
**A.** The cell viability was 111%.

**Q.** What about the cell viability (Calu-3 [2]; 10 nM) of the same molecule?
**A.** The cell viability was 100%.

**Q.** What about the cell viability (Calu-3 [2]; 100 nM) of the same molecule?
**A.** Its cell viability is 110%.

**Q.** And the cell viability (Calu-3 [2]; 1000 nM)?
**A.** Its cell viability is 87.3%.

**Q.** And the cell viability (Calu-3 [2]; 10000 nM)?
**A.** Its cell viability is 77.7%.

**Q.** And the cell viability (HepG2 [3]; 1 nM)?
**A.** Its cell viability is 100%.

**Q.** And the cell viability (HepG2 [3]; 10 nM)?
**A.** The cell viability was 100%.

**Q.** What about the cell viability (HepG2 [3]; 100 nM) of the same molecule?
**A.** The cell viability was 91.3%.

**Q.** And the cell viability (HepG2 [3]; 1000 nM)?
**A.** Its cell viability is 50.5%.

**Q.** What about the cell viability (HepG2 [3]; 10000 nM) of the same molecule?
**A.** Its cell viability is 22.5%.

**Q.** What about the cell viability (U2OS [4]; 1 nM) of the same molecule?
**A.** Its cell viability is 106%.

**Q.** And the cell viability (U2OS [4]; 10 nM)?
**A.** The cell viability was 104%.

**Q.** And the cell viability (U2OS [4]; 100 nM)?
**A.** The cell viability was 101%.

**Q.** And the cell viability (U2OS [4]; 1000 nM)?
**A.** Its cell viability is 98.7%.

**Q.** What about the cell viability (U2OS [4]; 10000 nM) of the same molecule?
**A.** Its cell viability is 79.4%.

**Q.** And the cell viability (Vero E6 [5]; 1 nM)?
**A.** The cell viability was 106%.

**Q.** And the cell viability (Vero E6 [5]; 10 nM)?
**A.** The cell viability was 109%.

**Q.** What about the cell viability (Vero E6 [5]; 100 nM) of the same molecule?
**A.** Its cell viability is 100%.

**Q.** What about the cell viability (Vero E6 [5]; 1000 nM) of the same molecule?
**A.** Its cell viability is 90.7%.

**Q.** And the cell viability (Vero E6 [5]; 10000 nM)?
**A.** The cell viability was 35.8%.

**Q.** What about the “relative viability EC50” value (Calu-3 [6]) of the same molecule?
**A.** The value was over 10 µM.

**Q.** And the “relative viability EC50” value (HepG2 [7])?
**A.** Its value is 0.608 µM.

**Q.** And the “relative viability EC50” value (U2OS [8])?
**A.** The value was over 10 µM.

**Q.** What about the “relative viability EC50” value (Vero E6 [9]) of the same molecule?
**A.** The value was 2.02 µM.

**Q.** And the drug sensitivity score (Caco-2 [10])?
**A.** The drug sensitivity score was 6.8.

**Q.** What about the drug sensitivity score (Calu-3 [11]) of the same molecule?
**A.** The drug sensitivity score was 2.1.

**Q.** And the drug sensitivity score (HepG2 [12])?
**A.** Its drug sensitivity score is 10.6.

**Q.** What about the drug sensitivity score (U2OS [13]) of the same molecule?
**A.** Its drug sensitivity score is 0.8.

**Q.** And the drug sensitivity score (Vero E6 [14])?
**A.** Its drug sensitivity score is 5.1.

**Q.** Which results are given for `CCOC(=O)c1cncn1[C@H](C)c1ccccc1` [etomidate]?
**A.** cell viability (Calu-3 [2]; 1 nM): 94.2%; cell viability (Calu-3 [2]; 10 nM): 111%; cell viability (Calu-3 [2]; 100 nM): 97.1%; cell viability (Calu-3 [2]; 1000 nM): 102%; cell viability (Calu-3 [2]; 10000 nM): 100%; cell viability (HepG2 [3]; 1 nM): 95%; cell viability (HepG2 [3]; 10 nM): 86.3%; cell viability (HepG2 [3]; 100 nM): 97.3%; cell viability (HepG2 [3]; 1000 nM): 100%; cell viability (HepG2 [3]; 10000 nM): 91.7%; cell viability (U2OS [4]; 1 nM): 91.8%; cell viability (U2OS [4]; 10 nM): 99.2%; cell viability (U2OS [4]; 100 nM): 94.4%; cell viability (U2OS [4]; 1000 nM): 97.2%; cell viability (U2OS [4]; 10000 nM): 102%; cell viability (Vero E6 [5]; 1 nM): 102%; cell viability (Vero E6 [5]; 10 nM): 96.4%; cell viability (Vero E6 [5]; 100 nM): 104%; cell viability (Vero E6 [5]; 1000 nM): 89.1%; cell viability (Vero E6 [5]; 10000 nM): 106%; relative viability EC50 (Calu-3 [6]): > 10 µM; relative viability EC50 (HepG2 [7]): > 10 µM; relative viability EC50 (U2OS [8]): > 10 µM; relative viability EC50 (Vero E6 [9]): > 10 µM; drug sensitivity score (Calu-3 [11]): 0; drug sensitivity score (HepG2 [12]): 0; drug sensitivity score (U2OS [13]): 0; drug sensitivity score (Vero E6 [14]): 0

**Q.** Which results are given for `CCc1cncnc1N1CCN(Cc2nc3cc(C(F)(F)F)ccc3[nH]2)CC1`?
**A.** cell viability (Caco-2 [1]; 1 nM): 93.2%; cell viability (Caco-2 [1]; 10 nM): 109%; cell viability (Caco-2 [1]; 100 nM): 99%; cell viability (Caco-2 [1]; 1000 nM): 98.5%; cell viability (Caco-2 [1]; 10000 nM): 61.8%; cell viability (Calu-3 [2]; 1 nM): 80.8%; cell viability (Calu-3 [2]; 10 nM): 101%; cell viability (Calu-3 [2]; 100 nM): 84.2%; cell viability (Calu-3 [2]; 1000 nM): 89.9%; cell viability (Calu-3 [2]; 10000 nM): 88.2%; cell viability (HepG2 [3]; 1 nM): 97.6%; cell viability (HepG2 [3]; 10 nM): 103%; cell viability (HepG2 [3]; 100 nM): 103%; cell viability (HepG2 [3]; 1000 nM): 92.4%; cell viability (HepG2 [3]; 10000 nM): 34.8%; cell viability (U2OS [4]; 1 nM): 96.6%; cell viability (U2OS [4]; 10 nM): 101%; cell viability (U2OS [4]; 100 nM): 98.5%; cell viability (U2OS [4]; 1000 nM): 97.7%; cell viability (U2OS [4]; 10000 nM): 79.9%; cell viability (Vero E6 [5]; 1 nM): 99.5%; cell viability (Vero E6 [5]; 10 nM): 104%; cell viability (Vero E6 [5]; 100 nM): 101%; cell viability (Vero E6 [5]; 1000 nM): 101%; cell viability (Vero E6 [5]; 10000 nM): 89.9%; relative viability EC50 (Calu-3 [6]): > 10 µM; relative viability EC50 (HepG2 [7]): 2.21 µM; relative viability EC50 (U2OS [8]): > 10 µM; relative viability EC50 (Vero E6 [9]): > 10 µM; drug sensitivity score (Caco-2 [10]): 2.1; drug sensitivity score (Calu-3 [11]): 1.1; drug sensitivity score (HepG2 [12]): 4.8; drug sensitivity score (U2OS [13]): 0.9; drug sensitivity score (Vero E6 [14]): 0
